Reference: patent US20230020507A1, “COMPOUND AND USE THEREOF IN TREATING AUTOIMMUNE DISEASES” (PARENCHYMA BIOTECH INC., priority 2019, published 2023)

Assays:
[1] = tested on: AOM/DSS-induced colon cancer in C57BL/6 mice; test: AOM/DSS-induced colon cancer mouse model, number of tumors per colon; format: in vivo; conditions: 20 mg/kg oral daily 7th to 21st day, 93rd day, solvent control 11.33±4.33
From the text: Sterile distilled water was provided for drinking from the 8th day of the experiment.

[2] = tested on: IL-1β, IL-6, IL-17A, TNF-α, IL-10 and Foxp3 expression in colon lesions; test: mRNA expression of inflammatory and immunomodulatory factors in colon of DSS mice (real-time PCR); format: in vivo, mouse; conditions: 20 mg/kg oral, 15th day, compared to solvent control
From the text: On the 15th day of the experiment, the colon of the mouse was excised to prepare an mRNA sample. In order to extract mRNA, the colon tissue was ground with a homogenizer to acquire a homogeneous suspension. […] From the isolated RNA, cDNA was synthesized by reverse transcription followed by confirming the expression of inflammatory cytokines through real-time polymerase chain reaction (PCR) using iQ SYBR-Green Supermix (Bio-rad) in the CFX96 (Bio-rad) detection system. Relative values of the enzyme expression levels were compared by the ΔΔct method using GAPDH as a control enzyme. Herein, one (1) fold was set using the normal mouse colon as a control.
The real-time polymerase chain reaction was implemented under the conditions of cycles at an annealing temperature of 58′° C. and the following primer sequences were used.

[3] = tested on: Foxp3+ regulatory T cells; test: In vitro regulatory T cell (Foxp3+ Treg) production from human peripheral blood CD4 T cells; format: cell-based; conditions: anti-CD3/anti-CD28, TGFβ-1, IL-2, 2.5 μM, 7 days
Experimental: Human peripheral blood (AllCells) and phosphate buffered saline (PBS) were mixed in a ratio of 1:1 to prepare a mixture, followed by allowing the mixture to slowly rise so as not to be mixed into the upper layer of Histopaque (Sigma). After centrifugation at 350 g for 20 minutes, only the monocyte layer in the middle layer was collected and washed with HBSS (Hanks' Balanced Salt Solution, Gibco®). After washing with MACS buffer (Miltenyi Biotec) once more to obtain T-cells, positive selection (autoMACS seperator, Miltenyi Biotec) was performed with CD4 Microbeads (Miltenyi Biotec). The T-cells collected by the above method were prepared by resuspending the cells in RPMI-fetal bovine serum (FBS) 10%+2-ME (mercaptoethanol) medium at 5×10^5/ml. For T-cell activation, 10 μg/ml anti-CD3 (eBioscience™) was dispensed by 150 μl into a 48-well plate, reacted in a cell incubator (37° C., 5% CO2 incubator) for 3 hours, and washed with phosphate buffered saline to prepare the plate. 250 μl of resuspended T-cells was dispensed onto the prepared plate, and each well was treated with 2 μg/ml of anti-CD28 (eBioscience™), 5 ng/ml of TGFβ-1 (R&D systems), and 50 U/ml of IL-2 (Miltenyi Biotec). Each 5 μl of compounds at a concentration of 2.5 μM diluted in RPMI+2ME medium was used for treatment, followed by culturing the same in a cell incubator (37° C., 5% CO2 incubator) for 7 days. As a control, 5 μl of 0.05% dimethylsulfoxide (DMSO)/RPMI medium was used for treatment. After 7 days, in order to confirm effects of producing regulatory T cells, the cultured cells were recovered to determine the presence of Foxp3 protein.
The recovered cells were placed in a 5 ml FACS tube (BD Falcon) and washed with 1 ml of phosphate buffered saline. The cells were resuspended in 0.1 ml of FACS buffer (0.1% NaN3, 1% FBS) and treated with 1 μg of human immunoglobulin G (Human IgG, Sigma) to prevent non-specific binding of the antibody. After reacting at 4° C. for 15 minutes, the cells were washed with FACS buffer. Then, 1 ml of Fixation/Permeabilization solution (eBioscience™) was added to the FACS tube containing each sample, followed by reaction at 4° C. for 1 hour. Thereafter, the product was washed twice with a Permeabilization buffer (eBioscience™). Then, 0.25 μg of Foxp3 monoclonal antibody (eBioscience™) was used for treatment, followed by staining the sample for 4 to 30 minutes. The cells were washed twice with the permeabilization buffer, suspended in 0.3 ml of FACS buffer, and measured by flow cytometry.

[4] = tested on: IL-6, IL-17A and IL-10 expression in lung tissue; test: mRNA expression of IL-6, IL-17A and IL-10 in lung tissue of GVHD mice (real-time PCR); format: in vivo, mouse; conditions: 20 mg/kg i.p., 15th day, compared to solvent control
From the text: On the 15th day of the experiment, the lungs of the mice were excised to prepare an mRNA sample. In order to extract mRNA, the […] was ground with a homogenizer to obtain a homogeneous suspension. […] Then, cDNA was synthesized from the isolated RNA by reverse transcription, and the expression of inflammatory cytokines was confirmed through real-time polymerase chain reaction (PCR) using iQ SYBR-Green Supermix (Bio-rad) in the CFX96 (Bio-rad) detection system. Relative values of the enzyme expression levels were compared by the ΔΔct method using GAPDH as a control enzyme. Herein, one (1) fold was set using the normal mouse […] as a control.
The real-time polymerase chain reaction was implemented under the conditions of cycles at an annealing temperature of 58° C., and the following primer sequences were used.

[5] = tested on: C57BL/6 mice with graft-versus-host disease; test: Acute graft-versus-host disease model (allogeneic bone marrow transplantation), severity index; format: in vivo, mouse; conditions: 20 mg/kg intraperitoneally daily 4 to 9 days after transplantation; 14th day after transplantation; total of 10 points; solvent control 6.20±1.20
Experimental: The spleen of Balb/c IFN-γ knockout mouse (8 to 12 weeks old, female, 18±3 g) was excised, pulverized by adding RPMI medium, and then passed through a 40 μm cell strainer (BD Falcon), thereby obtaining a single cell suspension. The single cell suspension was centrifuged (1200 rpm, 5 minutes), and after discarding the supernatant, 1 ml of ACK (ammonium chloride/potassium bicarbonate) lysis buffer (0.15 M NH4Cl, 1 mM KHCO3, 0.1 mM Na2EDTA) was added, followed by stirring for 1 minute and then washing the same with RPMI medium.
Then, CD90.2^+ T cells were obtained from the cell suspension using Auto MACS pro (Miltenyi Biotec) (positive selection). To obtain bone marrow cells to be transplanted together with the obtained CD90.2^+ T cells, both femurs and tibias of wild-type Balb/c mice (8-12 weeks old, female, 18±3 g) were aseptically acquired. […]
Normal C57BL/6 mice (9 to 11 weeks old, female, 19±3 g) were irradiated with 850 cGy of radiation divided at an interval of 3 hours by using a radiation irradiator. […] The graft-versus-host disease severity index was evaluated at an interval of 2 days by visual observation in a severity index system that was classified into a total of 10 points with 0 to 2 points for each item including reduction of body weight, hair condition, posture, activity and skin change.

[6] = tested on: C57BL/6 mice with DSS-induced inflammatory bowel disease; test: DSS-induced inflammatory bowel disease model, severity index and colon weight:length ratio; format: in vivo, mouse; conditions: 20 mg/kg oral daily, compared to solvent control
Experimental: The 1.5% DSS solution was changed at an interval of 2 days. Sterile distilled water was provided for drinking from the 8th day of the experiment. Body weight and severity index were measured at an interval of 2 days from the 0th day of the experiment in order to confirm the onset of inflammatory bowel disease.
20 mg/kg of the compound per mouse was completely dissolved in DMSO corresponding to 10% (v/v) of the administered dose, and then diluted in a cremophor EL-phosphate buffered saline mixture in order to produce the final DMSO:Cremophor EL:phosphate buffered saline (1:1:8, v/v/v), followed by oral administration of 200 μl daily for a total of 10 times from the 2nd to 11th days of the experiment. An inflammatory bowel disease severity index was visually observed and recorded at an interval of 2 days according to a severity index system classified into 0 to 10 levels.
Inflammatory bowel disease symptoms were evaluated by summing the scores of three items according to the following items (Table 3).

O=C(Cc1c[nH]c2ccc(Cl)cc12)Nc1ccc(Cl)c(F)n1 [Compound 26, 2-(5-chloro-1H-indol-3-yl)-N-(5-chloro-6-fluoropyridin-2-yl)acetamide]
number of tumors in the colon [1]: 3.17±1.17
expression level of Foxp3 in the colon lesion [2]: significantly increased
expression level of IL-1β in colon lesions [2]: significantly reduced
expression level of IL-6 in colon lesions [2]: significantly reduced
expression level of IL-10 in the colon lesion [2]: significantly increased
expression level of IL-17A in colon lesions [2]: significantly reduced
expression level of TNF-α in colon lesions [2]: significantly reduced
generation of Foxp3+ regulatory T cells [3]: promoted
expression level of IL-6 in lung tissue [4]: significantly reduced
expression level of IL-10 in lung tissue [4]: significantly increased
expression level of IL-17A in lung tissue [4]: significantly reduced
graft-versus-host disease severity index [5]: 2.80±0.80
inflammatory bowel disease severity index ([6]; 2nd to 11th day, 10th day of the experiment): statistically significant therapeutic effects
colon weight:length ratio (intestinal inflammation) ([6]; 15th day of the experiment): significantly suppressed
